Results published in patent US7595401B2, “Therapeutic compounds and their use in cancer” (Myriad Pharmaceuticals, Inc., priority 2006, dated 2009).

tested on: purified human Hsp90; assay: Binding Assay: fluorescence polarization with BODIPY-labeled geldanamycin; details: 5 μM compound, BODIPY-GM 10 nM, Hsp90 30 nM
Method in brief: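 Fluorescence polarization competition with BODIPY-geldanamycin (10 nM final) and human Hsp90 (30 nM final) in HEPES-KOH pH 7.3 buffer with molybdate, NP-40, DTT; 2% DMSO, overnight at room temperature. Read 485/530 nm; percent inhibition from mP normalized to DMSO controls, fluorescent-compound points excluded.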

% Inhibition at 5 μM Compound Concentration	SMILES
39%	COc1cc(CCn2c(Sc3cc(OC)ccc3OC)nc3c(N)ncnc32)cc(OC)c1 [Example 193, 9-[2-(3,5-dimethoxy-phenyl)-ethyl]-8-(2,5-dimethoxy-phenylsulfanyl)-9H-purin-6-ylamine]
23%	CCOC(=O)N1CCCCC1CCn1cnc(N)c2nc(Sc3cc4c(cc3Br)OCO4)nc1-2 (stereo not drawn) [Example 340, Ethyl 2-(2-{6-amino-8-[(6-bromo-1,3-benzodioxol-5-yl)thio]-3H-purin-3-carboxylate]
0%	COc1ccc(Sc2nc3c(N)ncn(CCc4ccccc4)c-3n2)cc1Cl [Example 241, 8-[(3-Chloro-4-methoxyphenyl)thio]-3-(2-phenylethyl)-3H-purin-6-amine]
0.0%	COc1ccc(C)cc1Sc1nc2c(N)ncn(CCc3ccccc3Cl)c-2n1 [Example 325, 3-[2-(2-Chlorophenyl)ethyl]-8-[(2-methoxy-5-methylphenyl)thio]-3H-purin-6-amine]
31%	CC(=O)N1CCC(CCn2cnc(N)c3nc(Sc4cc5c(cc4Br)OCO5)nc2-3)CC1 [Example 365, 3-[2-(1-Acetylpiperidin-4-yl)ethyl]-8-[(6-bromo-1,3-benzodioxol-5-yl)thio]-3H-purin-6-amine]
5.0%	Nc1ncn(CCc2ccc(O)cc2)c2nc(Sc3cc4c(cc3Br)OCO4)nc1-2 [Example 301, 4-(2-{6-Amino-8-[(6-bromo-1,3-benzodioxol-5-yl)thio]-3H-purin-3-yl}ethyl)phenol]
0.0%	CCOC(=O)[C@@H]1C[C@H](CCn2cnc(N)c3nc(Sc4cc5c(cc4Br)OCO5)nc2-3)CCN1 (relative stereo) [Example 482, Ethyl cis-4-(2-{6-amino-8-[(6-bromo-1,3-benzodioxol-5-yl)thio]-3 H-purin-3-yl}ethyl)piperidine-2-carboxylate]
13.00%	Nc1ncn(CCC2CCN(C(=O)C3CC3(F)F)CC2)c2nc(Sc3cc4c(cc3Br)OCO4)nc1-2 (stereo not drawn) [Example 525, 8-[(6-Bromo-1,3-benzodioxol-5-yl)thio]-3-(2-{1-[(2,2-difluorocyclopropyl)carbonyl]piperidin-4-yl}ethyl)-3 H-purin-6-amine]
27.0%	COc1ccc([N+](=O)[O-])cc1Sc1nc2c(N)ncn(CCc3ccccc3Cl)c-2n1 [Example 319, 3-[2-(2-Chlorophenyl)ethyl]-8-[(2-methoxy-5-nitrophenyl)thio]-3H-purin-6-amine]
39%	CCC(C)C(Cn1cnc(N)c2nc(Sc3cc4c(cc3Br)OCO4)nc1-2)c1ccccc1 (stereo not drawn) [Example 100, 8-(6-bromo-benzo[1,3]dioxol-5-ylsulfanyl)-3-(3-methyl-2-phenyl-pentyl)-3H-purin-6-ylamine]

same assay, conditions: BODIPY-GM 10 nM, Hsp90 30 nM

IC50	SMILES
110 nM	COc1ccc(OC)c(Sc2nc3c(N)ncnc3n2CCc2cc(C)ccc2C)c1 [Example 115, 8-(2,5-Dimethoxy-phenylsulfanyl)-9-[2-(2,5-dimethyl-phenyl)-ethyl]-9H-purin-6-ylamine]
1400 nM	COc1cc(Sc2nc3c(N)ncnc3n2CCC2CCN(C=O)CC2)ncn1 [Example 544, 4-(2-{6-Amino-8-[(6-methoxypyrimidin-4-yl)thio]-9 H-purin-9-yl}ethyl)piperidine-1-carbaldehyde]
310 nM	COc1cc(CCn2c(Sc3cc(OC)ccc3OC)nc3c(N)ncnc32)cc(OC)c1 [Example 193, 9-[2-(3,5-dimethoxy-phenyl)-ethyl]-8-(2,5-dimethoxy-phenylsulfanyl)-9H-purin-6-ylamine]
390 nM	CC(C)(C)NC(=O)N1CCCC(CCn2c(Sc3cc4c(cc3Br)OCO4)nc3c(N)ncnc32)C1 (stereo not drawn) [Example 437, 3-(2-{6-Amino-8-[(6-bromo-1,3-benzodioxol-5-yl)thio]-9H-purin-9-yl}ethyl)-N-(tert-butyl)piperidine-1-carboxamide]
37 nM	CCOC(=O)CNC(=O)N1CCC(CCn2c(Sc3cc4c(cc3Br)OCO4)nc3c(N)ncnc32)CC1 [Example 434, Ethyl N-{[4-(2-{6-amino-8-[(6-bromo-1,3-benzodioxol-5-yl)thio]-9H-purin-9-yl}ethyl)piperidin-1-yl]carbonyl}glycinate]
6800 nM	COc1ccc(C)cc1Sc1nc2c(N)ncnc2n1CCc1ccccc1 [Example 314, 8-[(2-Methoxy-5-methylphenyl)thio]-9-(2-phenylethyl)-9H-purin-6-amine]
525 nM	C=Cn1c(Sc2cc3c(cc2Br)OCO3)nc2c(N)ncnc21 [Example 498, 8-(6-bromo-benzo[1,3]dioxol-5-ylsulfanyl)-9-vinyl-9H-6-ylamine]
> 25000 nM	Nc1ncnc2c1nc(Sc1cccc(OC(F)F)c1)n2CCc1ccccc1Cl [Example 258, 9-[2-(2-Chlorophenyl)ethyl]-8-{[3-(difluoromethoxy)phenyl]thio}-9H-purin-6-amine]
310 nM	CC(=O)N1CCC[C@H]1C(=O)N1CCC(CCn2c(Sc3cc4c(cc3Br)OCO4)nc3c(N)ncnc32)CC1 [Example 776, 9-{2-[1-(1-Acetyl-L-prolyl)piperidin-4-yl]ethyl}-8-[(6-bromo-1,3-benzodioxol-5-yl)thio]-9H-purin-6-amine]
230 nM	CC(C)(C)OC(=O)NC1(C(=O)N2CCC(CCn3c(Sc4cc5c(cc4Br)OCO5)nc4c(N)ncnc43)CC2)CC1 [Example 709, tert-Butyl(1-{[4-(2-{6-amino-8-[(6-bromo-1,3-benzodioxol-5-yl)thio]-9H-purin-9-yl}ethyl)piperidin-1-yl]carbonyl}cyclopropyl)carbamate]
> 8000 nM	COc1ccc(OC)c(Sc2nc3c(N)ncnc3n2CCC2=CC3CC(C2)C3(C)C)c1 (stereo not drawn) [Example 405, 8-[(2,5-Dimethoxyphenyl)thio]-9-[2-(6,6-dimethylbicyclo[3.1.1]hept-2-en-3-yl)ethyl]-9H-purin-6-amine]
> 8000 nM	CC(C)[C@H]1C[C@H](CCn2c(Sc3cc4c(cc3Br)OCO4)nc3c(N)ncnc32)CCN1C(=O)OC(C)(C)C (relative stereo) [Example 428, tert-Butyl trans-4-(2-{6-amino-8-[(6-bromo-1,3-benzodioxol-5-yl)thio]-9H-purin-9-yl}ethyl)-2-isopropylpiperidine-1-carboxylate]
310 nM	CC(C)(C)OC(=O)N1CCC(=CCn2c(Sc3cc4c(cc3Br)OCO4)nc3c(N)ncnc32)CC1 [Example 390, tert-Butyl 4-(2-{6-amino-8-[(6-bromo-1,3-benzodioxol-5-yl)thio]-9H-purin-9-yl}ethylidene)piperidine-1-carboxylate]
> 5000 nM	CC(=O)N1CCC(CCn2c(Sc3nc4cc(Cl)ccc4s3)nc3c(N)ncnc32)CC1 [Example 656, 9-[2-(1-Acetylpiperidin-4-yl)ethyl]-8-[(5-chloro-1,3-benzothiazol-2-yl)thio]-9H-purin-6-amine]
> 25000 nM	COc1ccc(OC)c(Sc2nc3c(N)ncnc3n2CCc2ccc(-c3ccccc3)cc2)c1 [Example 181, 9-(2-Biphenyl-4-yl-ethyl)-8-(2,5-dimethoxy-phenylsulfanyl)-9H-purin-6-ylamine]
2900 nM	COc1ccc(OC)c(Sc2nc3c(N)ncnc3n2CCC2CC(C)(C)NC(C)(C)C2)c1 [Example 361, 8-[(2,5-Dimethoxyphenyl)thio]-9-[2-(2,2,6,6-tetramethylpiperidin-4-yl)ethyl]-9H-purin-6-amine]
81 nM	Nc1ncnc2c1nc(Sc1cc3c(cc1Br)OCO3)n2CCN1C(=O)CCCC1=O [Example 496, 1-(2-{6-Amino-8-[(6-bromo-1,3-benzodioxol-5-yl)thio]-9H-purin-9-yl}ethyl)piperidine-2,6-dione]
900 nM	CC(C)N1CCC(CCn2c(Sc3cc4c(cc3Br)OCO4)nc3c(N)ncnc32)CC1 [Example 582, 8-[(6-Bromo-1,3-benzodioxol-5-yl)thio]-9-[2-(1-isopropylpiperidin-4-yl)ethyl]-9 H-purin-6-amine]
44 nM	Nc1ncnc2c1nc(Sc1cc3c(cc1Br)OCO3)n2CCc1ccccc1F [Example 147, 8-(6-Bromo-1,3-benzodioxol-5-ylsulfanyl)-9-[2-(2-fluoro-phenyl)-ethyl]-9H-purin-6-ylamine]
> 5000 nM	COc1ccc(OC)c(Sc2nc3c(N)ncnc3n2CCc2ccc(Cl)cc2)c1 [Example 248, 9-[2-(4-Chlorophenyl)ethyl]-8-[(2,5-dimethoxyphenyl)thio]-9H-purin-6-amine]
> 5000 nM	CC(=O)N1CCC(CCn2c(Sc3ccc4c(c3)CCO4)nc3c(N)ncnc32)CC1 [Example 528, 9-[2-(1-Acetylpiperidin-4-yl)ethyl]-8-(2,3-dihydro-1-benzofuran-5-ylthio)-9 H-purin-6-amine]
> 25000 nM	Nc1ncnc2c1nc(Sc1cc3c(cc1Br)OCO3)n2CCC12CC3CC(CC(C3)C1)C2 [Example 356, 9-[2-(1-Adamantyl)ethyl]-8-[(6-bromo-1,3-benzodioxol-5-yl)thio]-9H-purin-6-amine]
800 nM	CC(C)C[C@H](NC(=O)OC(C)(C)C)C(=O)N1CCCC(CCn2c(Sc3cc4c(cc3Br)OCO4)nc3c(N)ncnc32)C1 (stereo partly drawn) [Example 719, tert-Butyl((1S)-1-{[3-(2-{6-amino-8-[(6-bromo-1,3-benzodioxol-5-yl)thio]-9H-purin-9-yl}ethyl)piperidin-1-yl]carbonyl}-3-methylbutyl)carbamate]
4000 nM	COc1cccc(Sc2nc3c(N)ncn(CCc4ccccc4)c-3n2)c1 [Example 288, 8-[(3-Methoxyphenyl)thio]-3-(2-phenylethyl)-3H-purin-6-amine]
190 nM	COC(=O)CCCNC(=O)N1CCCC(CCn2c(Sc3cc4c(cc3Br)OCO4)nc3c(N)ncnc32)C1 (stereo not drawn) [Example 503, Methyl 4-({[3-(2-{6-amino-8-[(6-bromo-1,3-benzodioxol-5-yl)thio]-9 H-purin-9-yl}ethyl)piperidin-1-yl]carbonyl}amino)butanoate]
195 nM	CC(C)(C)C(=O)N1CCC(CCn2c(Sc3cc4c(cc3Br)OCO4)nc3c(N)ncnc32)CC1 [Example 451, 8-[(6-Bromo-1,3-benzodioxol-5-yl)thio]-9-{2-[1-(2,2-dimethylpropanoyl)piperidin-4-yl]ethyl}-9H-purin-6-amine]
